Experimental findings from patent US20170273922A1, “UREA AND BIS-UREA BASED COMPOUNDS AND ANALOGUES THEREOF USEFUL IN THE TREATMENT OF ANDROGEN RECEPTOR MEDIATED DISEASES OR DISORDERS” (THE ROYAL INSTITUTION FOR THE ADVACEMENT OF LEARNING/MCGILL …, priority 2014, published 2017) are described below.

Where a chain is given by its changes, count along the chain named. Entries after “also recorded” stand apart in the source; their conditions may differ.

The target in assay [1] is T1, full-length IRF3 (Homo sapiens, UniProt Q14653).
T1 construct: co-transfected with full-length IRF3 or IRF3DBD-AR(1-547) expressing plasmids; expressed in transfected cells
T1 sequence (Q14653 1-427): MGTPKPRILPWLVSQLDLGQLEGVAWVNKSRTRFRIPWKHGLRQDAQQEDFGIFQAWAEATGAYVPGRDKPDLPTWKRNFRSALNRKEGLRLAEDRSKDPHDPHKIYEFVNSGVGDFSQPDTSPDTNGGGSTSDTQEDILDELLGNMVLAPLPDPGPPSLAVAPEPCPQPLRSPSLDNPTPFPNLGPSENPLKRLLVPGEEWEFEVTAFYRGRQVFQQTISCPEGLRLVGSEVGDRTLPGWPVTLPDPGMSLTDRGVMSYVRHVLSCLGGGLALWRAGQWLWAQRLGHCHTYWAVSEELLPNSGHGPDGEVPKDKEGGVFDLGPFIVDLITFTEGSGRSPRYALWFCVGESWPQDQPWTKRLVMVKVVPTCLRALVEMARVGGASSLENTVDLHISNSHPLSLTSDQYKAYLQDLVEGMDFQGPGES
Kind of assay: Full-length IRF3 ISRE-luc reporter assay. The format is cell-based. The conditions noted are these: PC3 cells, 24 h. An excerpt: For all of the others, cells were co-transfected with full-length IRF3 or IRF3DBD-AR(1-547) expressing plasmids and with the ISRE-luc reporter and pRL-TK plasmids. […] As IRF3DBD-AR(1-547) contains the DBD of IRF3, ISRE-luc reporter instead of the PSA-luc reporter was used in our assays.
HEK293 cells were co-transfected with IRF3DBD(1-133) or IRF3DBD-AR(1-547) or IRF3DBD-AR(181-547) or full-length IRF3 expressing plasmids and with the ISRE-luc reporter and the Renilla luciferase pRL-TK plasmids.
Here, IRF3-AR(1-547) is the fusion of IRF3 DBD with the AR NTD (1-547). […] The plasmids expressing IRF3-AR(1-547) (A) or wild-type IRF3 (B) or IRF3 DBD (for NT) as well as ISRE-luc and pRL-TK were transiently transfected into PC3 cells. […] Bic, bicalutamide; EPI, EPI-001.
A general note: In a reporter assay the amount or activity of a reporter protein is the signal.

Assay [2] deals with T2, H874Y mutant of full-length AR in 22Rv1 cells (Homo sapiens, UniProt P10275, H875Y).
T2 sequence (P10275 1-920 H875Y): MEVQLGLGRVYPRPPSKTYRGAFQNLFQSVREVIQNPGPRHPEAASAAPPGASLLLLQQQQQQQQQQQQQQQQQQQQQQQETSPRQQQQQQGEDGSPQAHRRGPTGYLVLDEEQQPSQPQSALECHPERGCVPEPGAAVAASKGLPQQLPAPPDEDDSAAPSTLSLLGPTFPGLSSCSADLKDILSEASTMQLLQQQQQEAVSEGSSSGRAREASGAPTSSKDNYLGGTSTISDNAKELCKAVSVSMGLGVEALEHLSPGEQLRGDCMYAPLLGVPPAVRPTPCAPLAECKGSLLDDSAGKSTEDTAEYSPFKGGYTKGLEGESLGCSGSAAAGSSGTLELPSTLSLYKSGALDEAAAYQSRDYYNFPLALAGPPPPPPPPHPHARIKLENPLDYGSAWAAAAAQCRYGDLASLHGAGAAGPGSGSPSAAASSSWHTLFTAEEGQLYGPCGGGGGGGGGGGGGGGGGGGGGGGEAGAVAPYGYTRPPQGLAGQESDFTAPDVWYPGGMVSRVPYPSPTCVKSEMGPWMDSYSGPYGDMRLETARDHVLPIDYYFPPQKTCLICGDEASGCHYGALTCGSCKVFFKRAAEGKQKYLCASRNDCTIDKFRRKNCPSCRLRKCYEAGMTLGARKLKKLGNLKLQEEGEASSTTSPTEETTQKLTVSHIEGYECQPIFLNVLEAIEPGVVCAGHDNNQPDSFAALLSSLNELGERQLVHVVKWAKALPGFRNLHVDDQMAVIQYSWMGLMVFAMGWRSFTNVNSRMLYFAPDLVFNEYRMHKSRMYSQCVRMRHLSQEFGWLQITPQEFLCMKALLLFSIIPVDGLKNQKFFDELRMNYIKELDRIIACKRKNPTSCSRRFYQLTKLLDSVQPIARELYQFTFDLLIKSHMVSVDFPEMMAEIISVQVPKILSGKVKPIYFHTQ
Nature of the assay: PSA-luc reporter assay in 22Rv1 cells, DHT-induced (endogenous H874Y full-length AR). The format is cell-based.

Assay [3] deals with T3, WT full-length AR (Homo sapiens, UniProt P10275).
T3 sequence (P10275 1-920): T2 sequence (P10275 1-920 H875Y) with Y875H
Kind of assay: WT full-length AR PSA-luc reporter assay (DHT-induced) in transfected cells. The conditions noted are these: 24 h; for inhibition of DHT-induced activation of WT full-length AR (PSA-luc): 10 nM DHT; for agonism of full-length AR WT (PSA-luc): absence of DHT, PC3 cells.

Turning to `O=C(Nc1cccc(C(F)(F)F)c1)Nc1ccc(NC(=O)c2ccccc2F)c(C(F)(F)F)c1` [Compound 746], the “activity against wild-type IRF3 (ISRE-luc)” value in assay [1] is “inactive”. The “inhibition of DHT-induced AR activation in 22Rv1 cells (PSA-luc)” value in assay [2] (10 nM DHT, 24 h) is listed as “suppressed; also recorded: good activity”; in assay [2] (1 μM) it was “showed inhibitory activity”. The “inhibition of DHT-induced activation of WT full-length AR (PSA-luc)” value (from here on “inhibition … of WT full-length AR (PSA-luc)”) in assay [3] is recorded as “dose-dependently inhibit”.
For `N#Cc1ccc(NC(=O)Nc2cccc(C(F)(F)F)c2)cc1Cl` [Compound 492], in assay [3], the “inhibition … of WT full-length AR (PSA-luc)” value is “dose-dependently suppressed; also recorded: dose-dependently inhibit” and the “agonism of full-length AR WT (PSA-luc)” value is reported as “non-agonist”.
In the same order, the values of `N#Cc1ccc(NC(=O)Nc2cccc(C(F)(F)F)c2)cc1C(F)(F)F` [Compound 467] are “dose-dependently suppressed; also recorded: dose-dependently inhibit” and “non-agonist”.
As to `O=C(N/C=C/c1cccc(C(F)(F)F)c1)Nc1ccncn1` [Compound 562], the “activity against wild-type IRF3 (ISRE-luc)” value in assay [1] was “inactive”. For the same compound, in assay [2] (10 nM DHT, 24 h), the “inhibition of DHT-induced AR activation in 22Rv1 cells (PSA-luc)” value is given as “good activity”. In assay [3], the “inhibition … of WT full-length AR (PSA-luc)” value is on record as “dose-dependently inhibit”.
Take `O=C(Nc1cccc(C(F)(F)F)c1)Nc1ccc([N+](=O)[O-])c(C(F)(F)F)c1` [Compound 442]: in assay [3], the “inhibition … of WT full-length AR (PSA-luc)” value is on record as “dose-dependently suppressed; also recorded: dose-dependently inhibit” and the “agonism of full-length AR WT (PSA-luc)” value is “non-agonist”.
